Bounds are passed on as bounds.

In ChEMBL document CHEMBL1938379, “Capture hydrolysis signals in the microsomal stability assay: molecular mechanisms of the alkyl ester drug and prodrug metabolism” (Bioorg Med Chem Lett, 2012) one finds microsomal CLint data, which are given here for 29 molecules.

The first data set can be described thus: Clearance in human liver microsomes at 1 uM measured after 60 mins by HPLC analysis. To be noted: liver microsomes. On the technique in general: Liver microsomes are vesicles of endoplasmic reticulum, rich in cytochrome P450 enzymes.
On to `CCOC(=O)[C@H](CCc1ccccc1)N[C@@H](C)C(=O)N1[C@H](C(=O)O)C[C@@H]2CCC[C@@H]21`, for which the microsomal CLint (as a rule, a measure of how fast metabolising enzymes remove a compound, apart from limits set by blood flow) at 1 h, 1 µM amounted to 46.1 µL/min/mg.

Consider `CCOC(=O)[C@H](CCc1ccccc1)N[C@@H](C)C(=O)N1Cc2ccccc2C[C@H]1C(=O)O`, for which the microsomal CLint at 1 h, 1 µM came out at 8.5 µL/min/mg.

Regarding `CCOC(=O)[C@H](CCc1ccccc1)N[C@@H](C)C(=O)N1CC2(C[C@H]1C(=O)O)SCCS2`, the microsomal CLint at 1 h, 1 µM was under 8 µL/min/mg.

The molecule `CC1=C(C(=O)OC(C)C)C(c2cccc([N+](=O)[O-])c2)C(C(=O)OC2CN(C(c3ccccc3)c3ccccc3)C2)=C(N)N1` (centres undefined) [AZELNIDIPINE] came in with a microsomal CLint at 1 h, 1 µM of 33.9 µL/min/mg.

As for `CCOC(=O)[C@H](CCc1ccccc1)N[C@H]1CCc2ccccc2N(CC(=O)O)C1=O` [BENAZEPRIL], the microsomal CLint at 1 h, 1 µM stood at 52.5 µL/min/mg. This microsomal CLint at 1 h, 1 µM lies about 1.5-fold higher than the previous one.

For the molecule `CCOC(=O)COc1ccc2c(C)c(CCN(CC)CC)c(=O)oc2c1` [CHROMONAR], the intrinsic clearance (microsomal CLint) at 1 h, 1 µM was over 300 µL/min/mg.

As for `CCOC(=O)COc1ccc2c(=O)cc(-c3ccccc3)oc2c1` [EFLOXATE], the intrinsic clearance (microsomal CLint) at 1 h, 1 µM is over 300 µL/min/mg.

The molecule `COC(=O)[C@@H]1CC2=CC(=O)CC[C@]2(C)[C@@]23O[C@@H]2C[C@@]2(C)[C@@H](CC[C@@]24CCC(=O)O4)[C@H]13` [EPLERENONE] came in with a microsomal CLint at 1 h, 1 µM of 7.9 µL/min/mg.

`CCOC(=O)C1(c2ccccc2)CCCN(C)CC1` (centres undefined) [ETHOHEPTAZINE] returned a microsomal CLint at 1 h, 1 µM of 22.6 µL/min/mg.

For `CCOC(=O)/C=C1\SC(N2CCCCC2)C(=O)N1C` (centres undefined) [ETOZOLIN], the microsomal CLint at 1 h, 1 µM is 20.5 µL/min/mg.

As for `CCOC(=O)c1ncn2c1CN(C)C(=O)c1cc(F)ccc1-2` [FLUMAZENIL], the microsomal CLint at 1 h, 1 µM stood at 10.6 µL/min/mg.

`COC(=O)C1=C(C)NC(C)=C(C(=O)OC(C)C)C1c1cccc2nonc12` (centres undefined) [ISRADIPINE] had a microsomal CLint at 1 h, 1 µM of over 300 µL/min/mg.

`CCOC(=O)C1=C(C)NC(C)=C(C(=O)OCC)C1c1ccccc1/C=C/C(=O)OC(C)(C)C` [LACIDIPINE]: the microsomal CLint at 1 h, 1 µM amounted to 99.2 µL/min/mg.

With `COC(=O)C1=C(C)NC(C)=C(C(=O)OC(C)(C)CN(C)CCC(c2ccccc2)c2ccccc2)C1c1cccc([N+](=O)[O-])c1` (centres undefined) [LERCANIDIPINE], the microsomal CLint at 1 h, 1 µM came out at 125 µL/min/mg.

`COC(=O)C1=C(C)NC(C)=C(C(=O)OCCN2CCN(C(c3ccccc3)c3ccccc3)CC2)C1c1cccc([N+](=O)[O-])c1` (centres undefined) [MANIDIPINE 6300] registered an intrinsic clearance (microsomal CLint) at 1 h, 1 µM of 93.4 µL/min/mg.

The molecule `COC(=O)C(c1ccccc1)C1CCCCN1` (centres undefined) [METHYLPHENIDATE] had a microsomal CLint at 1 h, 1 µM of 11.1 µL/min/mg.

Molecule `CCOC(=O)[C@H](CCc1ccccc1)N[C@@H](C)C(=O)N1Cc2cc(OC)c(OC)cc2C[C@H]1C(=O)O` [MOEXIPRIL] returned a microsomal CLint at 1 h, 1 µM of under 8 µL/min/mg.

In turn, `COC(=O)C1=C(C#N)NC(C)=C(C(=O)OC(C)C)C1c1cccc([N+](=O)[O-])c1` (centres undefined) [NILVADIPINE] returned a microsomal CLint at 1 h, 1 µM of 205 µL/min/mg.

`COCCOC(=O)C1=C(C)NC(C)=C(C(=O)OC(C)C)C1c1cccc([N+](=O)[O-])c1` (centres undefined) [NIMODIPINE] registered a microsomal CLint at 1 h, 1 µM of over 300 µL/min/mg.

Regarding `COC(=O)C1=C(C)NC(C)=C(C(=O)OCC(C)C)C1c1ccccc1[N+](=O)[O-]` (centres undefined) [NISOLDIPINE], the intrinsic metabolic clearance (microsomal CLint) at 1 h, 1 µM was over 300 µL/min/mg.

In turn, `CCOC(=O)C1=C(C)NC(C)=C(C(=O)OC)C1c1cccc([N+](=O)[O-])c1` (centres undefined) [NITRENDIPINE] came in with a microsomal CLint at 1 h, 1 µM of 166 µL/min/mg.

For the molecule `CCC[C@H](N[C@@H](C)C(=O)N1[C@H](C(=O)O)C[C@@H]2CCCC[C@@H]21)C(=O)OCC` [PERINDOPRIL], the microsomal CLint at 1 h, 1 µM turned out to be 10.7 µL/min/mg.

On to `COC(=O)[C@H]1[C@H]2C[C@@H]3c4[nH]c5cc(OC)ccc5c4CCN3C[C@H]2C[C@@H](OC(=O)c2cc(OC)c(OC)c(OC)c2)[C@@H]1OC` [RESERPINE], for which the microsomal CLint at 1 h, 1 µM worked out at 18.3 µL/min/mg.

As for `CCOC(=O)[C@H](CCc1ccccc1)N[C@H]1CS[C@H](c2cccs2)CN(CC(=O)O)C1=O` [TEMOCAPRIL], the microsomal CLint at 1 h, 1 µM came to 133 µL/min/mg.

`CCOC(=O)c1c(N)sc2c1CCN(Cc1ccccc1)C2` [TINORIDINE] had a microsomal CLint at 1 h, 1 µM of 71.2 µL/min/mg.

Molecule `CC[C@]12CCCN3CCc4c(n(c5ccccc45)[C@@](O)(C(=O)OC)C1)[C@@H]32` [VINCAMINE] yielded a microsomal CLint at 1 h, 1 µM of 66 µL/min/mg.

Regarding `C#C[C@H](CC(=O)OCC)NC(=O)CCC(=O)Nc1ccc(C(=N)N)cc1` [XEMILOFIBAN], the microsomal CLint at 1 h, 1 µM was under 8 µL/min/mg.

With `COC(=O)[C@@H]1[C@H]2C[C@H]3c4[nH]c5ccccc5c4CCN3C[C@@H]2CC[C@@H]1O` [YOHIMBINE], the microsomal CLint at 1 h, 1 µM was determined as 34.4 µL/min/mg.

Staying with this data set, now noted: microsomes.
In turn, `COC(=O)[C@H](c1ccccc1Cl)N1CCc2sccc2C1` [CLOPIDOGREL] had a microsomal CLint at 1 h, 1 µM of over 300 µL/min/mg.
